Experimental data reported in patent publication US5502068A, “Cyclopropylpyrroloindole-oligopeptide anticancer agents” (Synphar Laboratories, Inc., priority 1995, dated 1996).
Converted amounts (≈) assume the structure as drawn. “Also recorded” adds a separate entry of the source. Read-outs that look alike come from different tables or passages of the source.

What was measured:
[1] = system: KB human nasopharyngeal carcinoma cells; assay: Cytotoxicity (antiproliferative effect), crystal violet staining; type: cell-based; conditions: Homo sapiens, KB, 72 h
Description: KB human nasopharyngeal carcinoma cells, were maintained in RPMI 1640 medium supplemented with 10% fetal bovine serum. KB cells were cultured in plastic tissue culture flasks and kept in an incubator at 37° C. in humidified air containing 5% CO2. These cells were free of Mycoplasma as determined with Hoechst 33258 stain.
The antiproliferative effect of compounds was determined using cell staining method by crystal violet.
One hundred-μ1 cultures were established at 10^3 cells/well in 96-well tissue culture plates (Nunc, Roskilde, Denmark). After 24 h. 100 µl of the medium containing 2 times concentrated the compounds were added to the cell culture. After an additional 3 days culture, cells were fixed to 20 µl of 25% glutaraldehyde for 15 minutes and washed with water, dried and stained with 0.05% crystal violet in 20% methanol for 15 minutes. After washing with water and drying, crystal violet was extracted with 100 µl of 50 mM NaH2 PO4 /ethanol (1:1 v/v) and OD540 was measured by the multiscanphotometer (Corona, Tokyo, Japan). A linear relationship between cell number and the amount of dye binding was found over the range of cell densities observed all experiments.

DNA [2] = assay: Site and sequence selective DNA alkylation by polyacrylamide gel electrophoresis (PAGE); type: biochemical; conditions: for Alkylation Intensity at AATA*: site AATA*; for Alkylation Intensity at ATAA*: site ATAA*; for Alkylation Intensity at CTTA: site CTTA; for Alkylation Intensity at GAAA: site GAAA; for Alkylation Intensity at GATA*: site GATA*; for Alkylation Intensity at GTTA: site GTTA; for Alkylation Intensity at TATA: site TATA; for Alkylation Intensity at TTAA*: site TTAA*; for Alkylation Intensity at TTTA: site TTTA
Source text: In contrast to FCE 24517, clear evidence of site and sequence selective DNA alkylation was obtained for the new CPI-oligopeptides by polyacrylamide gel electrophoresis (PAGE). […] Table 5 quantifies and compares the alkylation intensities at different sites for the CPI-oligopeptides with CC-1065. […] A detailed analysis of the frequency of occurrence of bases flanking the prominent alkylation sites for YW-052 and YW-053 compared with CC-1065 is given in Table 7.

DNA [3] = conditions: in words, cited from earlier work
[4] = clinical applications/usage; in words; cited from earlier work
[5] = system: P388 lymphocytic leukemia cells; assay: Antitumor efficacy, i.p. P388 lymphocytic leukemia in CDF1 mice; type: in vivo, mouse; conditions: maximum ILS, P388 ip
Description: All compounds were dissolved in dimethyl sulfoxide (DMSO), diluted in sterile 0.9% NaCl solution to 5% final DMSO concentration. BALB/c X DBA/2F1 (CDF1) mice were purchased from Japan CLEA. P388 lymphocytic leukemia cells were inoculated intraperitoneally (10^6 cells) 1 day prior to treatment into 6 week-old male CDF1 mice, and compounds were injected intraperitoneally in a total volume of 0.1 ml/10g mouse body weight. Efficacy for these models was expressed as the Increase in life span (ILS) of treated mice in comparison to untreated tumor-bearing mice. Experiment was completed on day 30 after tumor inoculation, and survivor on that day was evaluated as cured animal. Time to death (mean±SD.n=9) for untreated animals was 11.5±1.2 day and for solvent treated animals was 11.7±2.1 day.

[6] = Table 1, KB cells, 3 days, read-out: KB cells, toxicity TD50
[7] = Table 2, KB cells, 3 days, read-out: KB cells, toxicity TD50
[8] = Table 4, KB cell, read-out: Cytotoxicity IC50 (KB cell)

COc1cccc2c1C(=O)c1c(O)c3c(c(O)c1C2=O)C[C@@](O)(C(=O)CO)C[C@@H]3O[C@H]1C[C@H](N)[C@H](O)[C@H](C)O1 [Adriamycin, reference compound]
IC50 [1, 6]: 11 ng/mL (≈ 20.2 nM)
IC50 [1, 7]: 5 ng/mL (≈ 9.2 nM)
IC50 ([1]; Table 3, KB cells, 3 days, read-out: KB cells, toxicity TD50): 4.4 ng/mL (≈ 8.1 nM)

COc1c(O)c2c(c3cc(C(=O)N4CCc5c4c(O)c(OC)c4[nH]c(C(=O)N6CC7CC78C6=CC(=O)c6[nH]cc(C)c68)cc54)[nH]c13)CCN2C(N)=O (stereo not shown) [CC-1065, reference compound]
IC50 [1, 7]: 0.001 ng/mL (≈ 0.00142 nM)
Frequency of Occurrence, base A at +1 (DNA [2]; A, position +1): 30%
Frequency of Occurrence, base A at +2 (DNA [2]; A, position +2): 30%
Frequency of Occurrence, base A at +3 (DNA [2]; A, position +3): 20%
Frequency of Occurrence, base A at -1 (DNA [2]; A, position -1): 40%
Frequency of Occurrence, base A at -2 (DNA [2]; A, position -2): 40%
Frequency of Occurrence, base A at -3 (DNA [2]; A, position -3): 30%
Frequency of Occurrence, A/T at +1 (DNA [2]; A/T, position +1): 80%
Frequency of Occurrence, A/T at +2 (DNA [2]; A/T, position +2): 60%
Frequency of Occurrence, A/T at +3 (DNA [2]; A/T, position +3): 50%
Frequency of Occurrence, A/T at -1 (DNA [2]; A/T, position -1): 100%
Frequency of Occurrence, A/T at -2 (DNA [2]; A/T, position -2): 100%
Frequency of Occurrence, A/T at -3 (DNA [2]; A/T, position -3): 60%
Frequency of Occurrence, base C at +3 (DNA [2]; C, position +3): 10%
Frequency of Occurrence, base C at -3 (DNA [2]; C, position -3): 30%
Frequency of Occurrence, base G at +1 (DNA [2]; G, position +1): 20%
Frequency of Occurrence, base G at +2 (DNA [2]; G, position +2): 40%
Frequency of Occurrence, base G at +3 (DNA [2]; G, position +3): 40%
Frequency of Occurrence, base G at -3 (DNA [2]; G, position -3): 10%
DNA alkylation (DNA [2]; PAGE, in words): alkylate DNA strongly
Frequency of Occurrence, base T at +1 (DNA [2]; T, position +1): 50%
Frequency of Occurrence, base T at +2 (DNA [2]; T, position +2): 30%
Frequency of Occurrence, base T at +3 (DNA [2]; T, position +3): 30%
Frequency of Occurrence, base T at -1 (DNA [2]; T, position -1): 60%
Frequency of Occurrence, base T at -2 (DNA [2]; T, position -2): 60%
Frequency of Occurrence, base T at -3 (DNA [2]; T, position -3): 30%
Frequency of Occurrence, A* (site of alkylation) (DNA [2]; alkylated base A*): 100%
Frequency of Occurrence, G* (site of alkylation) (DNA [2]; alkylated base G*): 0%
Alkylation Sites (5'-3'), Moderate (DNA [2]; moderate sites): TATA, TTAA, GTTA; also recorded: CTTA, GGAA
Alkylation Intensity at AATA* (DNA [2]): 1.08
Alkylation Intensity at ATAA* (DNA [2]; first column of Table 5): 1.47
Alkylation Intensity at ATAA* (DNA [2]; third column of Table 5): .96
Alkylation Intensity at CTTA (DNA [2]): .61
Alkylation Intensity at GAAA (DNA [2]): .35
Alkylation Intensity at GATA* (DNA [2]): .80
Alkylation Intensity at GTTA (DNA [2]): 1.20
Alkylation Intensity at TATA (DNA [2]): 1.02
Alkylation Intensity at TTAA* (DNA [2]): .80
Alkylation Intensity at TTTA (DNA [2]): 1.09
Alkylation Sites (5'-3'), Strong (DNA [2]; strong sites): TTTA, GATA, ATAA; also recorded: AATA, ATAA
DNA sequence recognition (DNA [3]): strictly AT recognizing; also recorded: strictly limited AATT recognition
toxicity (delayed death syndrome) [4]: too toxic for clinical applications because of the delayed death syndrome; also recorded: too toxic for clinical usage

Cn1cc(NC(=O)c2cc(NC(=O)c3cc(NC(=O)c4ccc(N(CCCl)CCCl)cc4)cn3C)cn2C)cc1C(=O)NCCC(=N)N [FCE 24517]
DNA alkylation (DNA [3]; Arcamone et al., 1989): shows no evidence of DNA alkylation
DNA sequence recognition (DNA [3]): strictly AT recognizing; also recorded: strictly limited AATT recognition

CC(=O)Nc1cc(C(=O)N2CC3CC34C2=CC(=O)c2[nH]cc(C)c24)n(C)c1 (stereo not shown) [YW-031]
IC50 [1, 6]: 0.0324 ng/mL (≈ 0.0889 nM)

Cc1c[nH]c2c1C13CC1CN(C(=O)c1cccn1C)C3=CC2=O (stereo not shown) [YW-032]
IC50 [1, 6]: 38 ng/mL (≈ 124 nM)
Alkylation Intensity at AATA* (DNA [2]): 1.35
Alkylation Intensity at ATAA* (DNA [2]; first column of Table 5): .88
Alkylation Intensity at ATAA* (DNA [2]; third column of Table 5): 1.01
Alkylation Intensity at CTTA (DNA [2]): .61
Alkylation Intensity at GAAA (DNA [2]): .79
Alkylation Intensity at GATA* (DNA [2]): 1.35
Alkylation Intensity at GTTA (DNA [2]): 1.03
Alkylation Intensity at TATA (DNA [2]): 1.05
Alkylation Intensity at TTAA* (DNA [2]): .71
Alkylation Intensity at TTTA (DNA [2]): .63

Cc1c[nH]c2c1C13CC1CN(C(=O)CCc1cccn1C)C3=CC2=O (stereo not shown) [YW-033]
IC50 [1, 6]: 263 ng/mL (≈ 784 nM)
Alkylation Intensity at AATA* (DNA [2]): 1.42
Alkylation Intensity at ATAA* (DNA [2]; first column of Table 5): .95
Alkylation Intensity at ATAA* (DNA [2]; third column of Table 5): 1.11
Alkylation Intensity at CTTA (DNA [2]): .68
Alkylation Intensity at GAAA (DNA [2]): .84
Alkylation Intensity at GATA* (DNA [2]): 1.41
Alkylation Intensity at GTTA (DNA [2]): 1.27
Alkylation Intensity at TATA (DNA [2]): 1.40
Alkylation Intensity at TTAA* (DNA [2]): .84
Alkylation Intensity at TTTA (DNA [2]): .97

Cc1c[nH]c2c1C13CC1CN(C(=O)C=Cc1cccn1C)C3=CC2=O (stereo not shown) [YW-034]
IC50 [1, 6]: 0.275 ng/mL (≈ 0.825 nM)
IC50 [1, 8]: 0.27 ng/mL (≈ 0.81 nM)
In vivo ILS P388 (ip) ([5]; 1 mg/kg ip): 37.9%
Alkylation Intensity at AATA* (DNA [2]): 1.30
Alkylation Intensity at ATAA* (DNA [2]; first column of Table 5): .71
Alkylation Intensity at ATAA* (DNA [2]; third column of Table 5): .84
Alkylation Intensity at CTTA (DNA [2]): .44
Alkylation Intensity at GAAA (DNA [2]): .55
Alkylation Intensity at GATA* (DNA [2]): 1.09
Alkylation Intensity at GTTA (DNA [2]): .73
Alkylation Intensity at TATA (DNA [2]): .77
Alkylation Intensity at TTAA* (DNA [2]): .52
Alkylation Intensity at TTTA (DNA [2]): .49

CCC(=O)Nc1cc(C(=O)N2CC3CC34C2=CC(=O)c2[nH]cc(C)c24)n(C)c1 (stereo not shown) [YW-035]
IC50 [1, 8]: 1 ng/mL (≈ 2.64 nM)
In vivo ILS P388 (ip) ([5]; 0.1 mg/kg ip): 56.5%
